In doi:10.1101/2025.11.21.689824v1, “Fluorescent Biosensor-Guided Engineering of Enzyme Cascades for Electrochemical Applications” (biorxiv, 2025):
Read-outs that look alike come from different tables or passages of the source. Values belong to the molecule of their own block, whether it stands above or below them.

Columns and labels:
[1] = molecular target: T1, WT Fumarase (FumC, class II) (Escherichia coli, UniProt P05042); test: UV absorbance of fumarate, Lineweaver-Burk; format: biochemical; settings: potassium phosphate buffer, 20 nM enzyme; free enzyme
T1 construct: full length, N-terminal leader […]; (His tag, T7 gene 10 leader, Xpress) in pBAD, expressed in E. coli XL1-Blue; homotetramer
T1 sequence (P05042 1-467): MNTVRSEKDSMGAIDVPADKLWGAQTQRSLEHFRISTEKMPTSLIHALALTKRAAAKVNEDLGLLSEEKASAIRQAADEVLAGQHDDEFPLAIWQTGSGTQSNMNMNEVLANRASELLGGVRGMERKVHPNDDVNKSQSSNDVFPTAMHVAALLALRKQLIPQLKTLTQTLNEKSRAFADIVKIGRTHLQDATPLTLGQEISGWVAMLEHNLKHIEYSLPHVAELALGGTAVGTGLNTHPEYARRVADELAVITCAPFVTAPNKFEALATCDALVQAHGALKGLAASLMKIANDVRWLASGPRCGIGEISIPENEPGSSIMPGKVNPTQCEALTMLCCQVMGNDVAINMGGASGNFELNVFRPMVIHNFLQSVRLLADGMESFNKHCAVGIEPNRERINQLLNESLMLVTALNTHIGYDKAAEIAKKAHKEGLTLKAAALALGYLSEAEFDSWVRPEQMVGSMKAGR

[2] = test system: T2, Single-chain E. coli Fumarase #2; settings: potassium phosphate buffer, 1 µM enzyme
T2 construct: gene fumC

[3] = test system: H23 fusion (MDH-scaffolded KKRQKKKRK linker-fumarase); settings: fumarase component; potassium phosphate buffer, 20 nM enzyme; free enzyme
[4] = test system: V0 fusion (MDH-G4SG4S-fumarase); settings: fumarase component; potassium phosphate buffer, 20 nM enzyme; free enzyme
[5] = test system: Single-chain T. thermophilus Fumarase #1 H23 MDH Linkage (T1-H23); settings: fumarase component; potassium phosphate buffer, 1 µM enzyme
[6] = test system: T3, Single-chain T. thermophilus Fumarase #1; settings: potassium phosphate buffer, 1 µM enzyme
T3 construct: gene fumC

[7] = test system: Single-chain T. thermophilus Fumarase #1 V0 MDH Linkage (T1-V0); settings: fumarase component; potassium phosphate buffer, 1 µM enzyme
[8] = molecular target: V0 fusion (MDH-G4SG4S-fumarase); test: inhibition of fumarate to NADH cascade, Lineweaver-Burk; format: biochemical, Escherichia coli; settings: 500 µM NAD+, fumarate 0.25-8 mM, 100 mM potassium phosphate, 0.5 nM enzyme; competitive at the MDH part; cascade read-out; read-out: apparent Ki
Protocol: inhibition of fumarate to NADH cascade, Lineweaver-Burk on V0 fusion (MDH-G4SG4S-fumarase) | the apparent inhibition constant (Ki) of citrate on the enzymatic cascade was determined

[9] = molecular target: H23 fusion (MDH-scaffolded KKRQKKKRK linker-fumarase); test: as above; format: biochemical, Escherichia coli; settings: 500 µM NAD+, fumarate 0.25-8 mM, 100 mM potassium phosphate, 0.5 nM enzyme; competitive at the MDH part; cascade read-out; read-out: apparent Ki
[10] = test system: V0 fusion (MDH-G4SG4S-fumarase); settings: MDH component, fumarase part inactivated; 50 mM NAD+, potassium phosphate buffer, 1 nM enzyme
[11] = test system: Single-chain T. thermophilus Fumarase #1 V0 MDH Linkage (T1-V0); settings: MDH component; 50 mM NAD+, potassium phosphate buffer; not told whether the fumarase part was inactivated
[12] = test system: H23 fusion (MDH-scaffolded KKRQKKKRK linker-fumarase); settings: MDH component, fumarase part inactivated; 50 mM NAD+, potassium phosphate buffer, 1 nM enzyme
[13] = test system: Single-chain T. thermophilus Fumarase #1 H23 MDH Linkage (T1-H23); settings: MDH component; 50 mM NAD+, potassium phosphate buffer; not told whether the fumarase part was inactivated

SMILES: O=C(O)/C=C/C(=O)O [fumarate]
Km [1]: 443 ± 101 µM | Km [2]: 758 ± 192 µM | Km [3]: 934 ± 66 µM | Km [4]: 759 ± 51 µM | Km [5]: 972 ± 62 µM | Km [6]: 809 ± 59 µM | Km [7]: 969 ± 61 µM

SMILES: O=C(O)CC(O)(CC(=O)O)C(=O)O [citrate]
Ki [8]: 1.65 ± 0.15 mM | Ki [9]: 8.57 ± 0.71 mM

Km [10]: 1.21 ± 0.07 mM | Km [11]: 1.05 ± 0.39 mM | Km [12]: 1.22 ± 0.06 mM | Km [13]: 1.15 ± 0.37 mM
SMILES: O=C(O)C[C@H](O)C(=O)O [malate]
